Experimental data published in patent US20230190643A1, “IMPLANT FOR TREATMENT OF AN OCULAR CONDITION” (Allergan, Inc., priority 2015, published 2023).

Tests used:
GC receptor = target: T1, GC receptor (Homo sapiens, UniProt P04150); settings: GC receptor-binding (Tajika 2011b); cited from earlier work
T1 sequence (P04150 1-777): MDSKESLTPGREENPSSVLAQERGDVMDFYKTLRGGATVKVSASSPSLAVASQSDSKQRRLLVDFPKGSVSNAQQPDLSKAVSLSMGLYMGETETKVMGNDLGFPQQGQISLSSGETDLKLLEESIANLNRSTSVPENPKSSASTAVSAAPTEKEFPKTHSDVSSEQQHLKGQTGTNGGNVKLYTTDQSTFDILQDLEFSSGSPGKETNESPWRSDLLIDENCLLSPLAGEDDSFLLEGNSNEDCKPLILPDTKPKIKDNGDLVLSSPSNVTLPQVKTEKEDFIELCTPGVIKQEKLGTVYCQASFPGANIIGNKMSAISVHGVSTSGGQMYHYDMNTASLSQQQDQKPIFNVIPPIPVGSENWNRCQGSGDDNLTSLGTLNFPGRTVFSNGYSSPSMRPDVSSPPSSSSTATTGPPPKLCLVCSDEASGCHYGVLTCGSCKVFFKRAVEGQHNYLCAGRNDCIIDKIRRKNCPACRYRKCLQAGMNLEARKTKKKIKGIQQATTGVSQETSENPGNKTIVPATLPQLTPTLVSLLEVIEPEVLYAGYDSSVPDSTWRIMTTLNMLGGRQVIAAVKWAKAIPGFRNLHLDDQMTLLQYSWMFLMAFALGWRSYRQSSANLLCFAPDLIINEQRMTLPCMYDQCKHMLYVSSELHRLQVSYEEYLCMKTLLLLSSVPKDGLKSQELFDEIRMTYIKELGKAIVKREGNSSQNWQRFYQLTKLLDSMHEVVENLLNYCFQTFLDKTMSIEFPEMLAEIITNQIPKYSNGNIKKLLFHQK

CHL/IU = settings: cited from earlier work
rabbits = settings: subcutaneous during organogenesis, cited from earlier work
male and female rats = settings: subcutaneous up to 10 μg/kg/day prior to and during mating; cited from earlier work
rodents and non-rodents = settings: consistent between species; cited from earlier work
Ames test = settings: cited from earlier work
[1] = Impact of gamma irradiation (46 kGy) on difluprednate assay of implant formulations; format: physicochemical
Description: Terminal moist heat sterilization is not a viable method due to the fact that ENV905 is a solid dosage form designed to disintegrate in aqueous environments. Therefore, studies to evaluate gamma irradiation were conducted on early ENV905 formulations to determine if ionizing radiation was a viable option for a terminally sterilized drug product. ENV905 implants were exposed to gamma irradiation with a dose of 46 kGy per ISO 11137-2:2012 (Sterilization of Health Care Products—Radiation—Part 2: Establishing the Sterilization Dose). The implant formulations used for these studies consisted of a blend of difluprednate and PEGs.
Implants were individually packaged in HPLC vials with air headspace and polytetrafluoroethylene (PTFE)-lined screw caps. Ten individual implants (n=10) were tested for difluprednate assay.

mice = settings: cited from earlier work

| SMILES | Ki (GC receptor) [nM] | genotoxicity in cultured mammalian cells CHL/IU (CHL/IU) | embryotoxicity and teratogenicity (rabbits; 1-10 μg/kg/day) | NOEL for embryotoxic and teratogenic effects (rabbits) [µg/kg/day] | teratogenic dose (rabbits) [µg/kg/day] | fertility (male and female rats) | no-observed-effect-level (NOEL), subchronic and chronic toxicity tests (rodents and non-rodents) [µg/kg/day] | genotoxicity in vitro in the Ames test (Ames test) | Degradation ([1]; Radiation Dose 46 kGy) [% Area] | Difluprednate Assay ([1]; Radiation Dose 46 kGy) [% Area] | Difluprednate Assay ([1]; Radiation Dose None) [% Area] | in vivo micronucleus test (mice) |
| --- | --- | --- | --- | --- | --- | --- | --- | --- | --- | --- | --- | --- |
| CCCC(=O)O[C@]1(C(=O)CO)CC[C@H]2[C@@H]3C[C@H](F)C4=CC(=O)C=C[C@]4(C)[C@@]3(F)[C@@H](O)C[C@@]21C [Desacetyl Difluprednate (DFB), 6α,9-difluoroprednisolone 17-butyrate] | 0.061 | – | – | – | – | – | – | – | – | – | – | – |
| CCCC(=O)O[C@]1(C(=O)COC(C)=O)CC[C@H]2[C@@H]3C[C@H](F)C4=CC(=O)C=C[C@]4(C)[C@@]3(F)[C@@H](O)C[C@@]21C [Difluprednate (DFBA), Difluprednate] | 0.78 | not genotoxic | embryotoxic (decrease in embryonic body weight and a delay in embryonic ossification) and teratogenic (cleft palate and skeletal anomalies) | 1 | 10 | did not impair fertility in either gender | 1 to 1.25 | not genotoxic | 0.85 | 97.13 | 97.98 | negative |
